In publication PMC7570662, “In Vivo Pharmacokinetic Analysis Utilizing Non-Targeted and Targeted Mass Spectrometry and In Vitro Assay against Transient Receptor Potential Channels of Maobushisaishinto and Its Constituent Asiasari Radix” (Molecules, 2020):

Test: Qualitative non-targeted LC-HRMS analysis of AR compounds in rat plasma after oral AR or MBST
Format: in vivo
Method: Extract powders of AR or MBST were suspended in distilled water and orally administered to rats having fasted for approximately 16 h. The dose of AR was set at 2 g/kg, and the MBST doses were set at 1 and 2 g/kg. 1 g/kg MBST contained 578 µg/kg, 147 µg/kg, 226 µg/kg, 426 µg/kg asarinin, sesamin, methyl kakuol, and amide A, respectively. The doses were chosen based on a previous pharmacological study of MBST using rats.
According to previous pharmacokinetic studies of herbal medicines, many of the components were quickly absorbed into the bloodstream, thereby providing the rationale for a sampling time at 1 h. Blood was centrifuged at 1200× g at 4 °C for 30 min to obtain plasma; then, the sample was stored at −80 °C until LC-HRMS analysis. […]
The plasma samples were collected at 1 h after MBST administration in case of both the qualitative (non-targeted) analysis and the quantitative (targeted) analysis.
The plasma samples of AR- or MBST-treated rats collected at 1 h post-administration were pretreated by deproteinization using methanol before the LC-HRMS analysis as follows: 100 µL plasma sample was mixed with 500 µL methanol, and the resultant solution was vortexed for 2 min. The mixture was centrifuged at 7000× g at 4 °C for 5 min. The supernatant was dried using a centrifugal evaporator, and the dried residue was dissolved in 100 μL of the initial LC mobile phase which is composed of 0.1 vol% formic acid in water/acetonitrile (99.9/0.1, v/v) and recentrifuged at 7000× g at 4 °C for 5 min. Finally, a 5 μL aliquot of the supernatant was injected into the LC-HRMS system comprised of an Acquity Ultra-Performance Liquid Chromatography System (Waters, Milford, MA, USA) and a Xevo G2-XS quadrupole time-of-flight MS (Waters) and was chromatographically separated using an ACQUITY UPLC HSS T3 column (2.1 × 150 mm I.D., 1.8-μm particle size; Waters) with an ACQUITY UPLC HSS T3 VanGuard Pre-column (2.1 mm × 5 mm I.D., 1.8-μm particle size; Waters) at 40 °C. The mobile phase consisted of solution A (0.1% formic acid, v/v) and solution B (acetonitrile) with a gradient of solution B (0.1%, 0 min; 99%, 24 min; v/v) at a flow rate of 0.4 mL/min. The analysis of the mass spectrometer fit with an electrospray ionization probe with sensitivity mode was performed for both the positive and negative ion mode. The resolution of the mass spectrometer was set at >20,000. For MS^E experiments, two acquisition functions with different collision energies were created: a low-energy function with a collision energy of 6 eV and a high-energy function with collision energy ranging from 15 to 40 eV.

(2E,4E,9E)-8,11-Dihydroxy-N-isobutyl-2,4,9-dodecatrienamide, (2E,4E,8Z)-10,11-Dihydroxy-N-isobutyl-2,4,8-dodecatrienamide
AR-Treated Rat Plasma (detection of compound) (rat plasma 1 h after oral 2 g/kg AR, n = 1, LC-HRMS): + (The number of plus signs represents the sample number in which the compound was detected among AR-treated rat plasma (n = 1) and MBST-treated rat plasma (n = 3))
MBST-Treated Rat Plasma (detection of compound) (rat plasma 1 h after oral 2 g/kg MBST, n = 3, LC-HRMS): + + + (The number of plus signs represents the sample number in which the compound was detected among AR-treated rat plasma (n = 1) and MBST-treated rat plasma (n = 3))
